Source: patent US7151105B2, “Inhibitors of Hepatitis C virus RNA-dependent RNA polymerase, and compositions and treatments using the same” (Agouron Pharmaceuticals, Inc., priority 2004, dated 2006)

What follows are molecules tested against T1, Recombinant HCV polymerase (Hepatitis C virus genotype 1b, UniProt P26663) (assay: biochemical). Details: inhibition of polymerase-directed transcription; 30 min at 30° C; 30 nM enzyme; cpm data in triplicate.
T1 construct: Recombinant HCV polymerase was tested for its ability to perform primer/template-directed transcription
Procedure: The compounds described herein were tested for activity with HCV polymerase. Recombinant HCV polymerase was tested for its ability to perform primer/template-directed transcription in assays that contained 30 mM tris-HCl pH 7.2, 10 mM MgCl2, 20 mM NaCl, 1 mM Dithiothreitol (DTT), 0.05% Tween-20, 1% glycerol, 5 pmoles biotin-dG12 (primer), 0.5 pmoles poly(rC)300 (template), 1 μM GTP, 0.1–0.3 uCi α-^32P-GTP, and 2.5 pmoles (0.15 μg) HCV polymerase protein in a final volume of 75 μL. Reactions were initiated by addition of enzyme and incubated 30 minutes at 30° C. Reactions were stopped by addition of 33 mM EDTA, and polynucleotide products were collected by filtration through Diethylaminoethyl (DE) Filtermat papers (Wallac). Unincorporated triphosphate was removed by washing the filters with 5% dibasic sodium phosphate. The filters were counted in a Packard Tri-Lux Microbeta scintillation counter (Packard Bioscience, Meriden, Conn.). Compounds to be tested were added at various concentrations, e.g., 1 μm to 50 μm, from stocks in 10% DMSO-water (final DMSO is 1% in reaction).
IC50 values were estimated from the primary cpm data (collected in triplicate) using the formula: cpm (I)=cpm (no inhibitor)(1−([I]/([I]+IC50))). […] A percent inhibition value is expressed for a compound where it was impractical to calculate an IC50 value with available data.

T1 sequence (P26663 2420-3010): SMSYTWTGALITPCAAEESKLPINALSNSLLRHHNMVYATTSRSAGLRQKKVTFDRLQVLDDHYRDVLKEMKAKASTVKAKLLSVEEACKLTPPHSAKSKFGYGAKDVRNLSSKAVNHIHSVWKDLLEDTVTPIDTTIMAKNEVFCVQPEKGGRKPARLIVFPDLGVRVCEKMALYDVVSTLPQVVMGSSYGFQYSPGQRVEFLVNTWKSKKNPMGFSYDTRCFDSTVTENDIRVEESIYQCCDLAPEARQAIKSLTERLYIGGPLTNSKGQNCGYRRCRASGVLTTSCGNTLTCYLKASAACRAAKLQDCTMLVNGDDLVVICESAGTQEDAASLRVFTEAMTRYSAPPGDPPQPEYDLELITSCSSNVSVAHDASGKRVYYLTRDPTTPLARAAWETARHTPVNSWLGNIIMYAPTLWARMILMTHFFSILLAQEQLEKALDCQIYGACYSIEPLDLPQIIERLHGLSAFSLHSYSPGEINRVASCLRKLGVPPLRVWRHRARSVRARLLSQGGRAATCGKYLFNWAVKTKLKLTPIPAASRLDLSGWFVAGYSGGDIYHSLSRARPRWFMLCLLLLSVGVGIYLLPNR

Row | Compound | IC50
1 | CCOc1cc(O)c(CC)cc1CCC1(C2CCCC2)CC(O)=C(Cc2nc3nc(C)cc(C)n3n2)C(=O)O1 (single isomer, unassigned) [A(30), 6-Cyclopentyl-3-[(5,7-dimethyl[1,2,4]triazolo[1,5-a]pyrimidin-2-yl)methyl]-[-6–2-(2-ethoxy-5-ethyl-4-hydroxyphenyl)ethyl]-4-hydroxy-5,6-dihydro-2H-pyran-2-one] | 4 nM
2 | CCOc1cc(O)c(CC)cc1CCC1(C2CCCC2)CC(O)=C(Cc2nc3nc(C)cc(C)n3n2)C(=O)O1 (single isomer, unassigned) [A(31), 6-Cyclopentyl-3-[(5,7-dimethyl[1,2,4]triazolo[1,5-a]pyrimidin-2-yl)methyl]-6-[2-(2-ethoxy-5-ethyl-4-hydroxyphenyl)ethyl]-4-hydroxy-5,6-dihydro-2H-pyran-2-one] | 6 nM
3 | CCc1cc(CCC2(C3CCCC3)CC(O)=C(Cc3nc4nc(C)cc(C)n4n3)C(=O)O2)c(OC)cn1 (single isomer, unassigned) [A(38), 6-Cyclopentyl-3-[(5,7-dimethyl[1,2,4]triazolo[1,5-a]pyrimidin-2-yl)methyl]-6-[2-(2-ethyl-5-methoxypyridin-4-yl)ethyl]-4-hydroxy-5,6-dihydro-2H-pyran-2-one] | 3 nM
4 | CCc1cc(CCC2(C3CCCC3)CC(O)=C(Cc3nc4nc(C)cc(C)n4n3)C(=O)O2)c(OC)cn1 (single isomer, unassigned) [A(39), 6-Cyclopentyl-3-[(5,7-dimethyl[1,2,4]triazolo[1,5-a]pyrimidin-2-yl)methyl]-6-[2-(2-ethyl-5-methoxypyridin-4-yl)ethyl]-4-hydroxy-5,6-dihydro-2H-pyran-2-one] | 6 nM
5 | CCc1cc(CCC2(C3CCCC3)CC(O)=C(Cc3nc4nc(C)cc(C)n4n3)C(=O)O2)ccn1 (single isomer, unassigned) [A(44), 6-Cyclopentyl-3-[(5,7-dimethyl[1,2,4]triazolo[1,5-a]pyrimidin-2-yl)methyl]-6-[2-(2-ethylpyridin-4-yl)ethyl]-4-hydroxy-5,6-dihydro-2H-pyran-2-one] | 7 nM
6 | CCc1cc(CCC2(C3CCCC3)CC(O)=C(Cc3nc4nc(C)cc(C)n4n3)C(=O)O2)ccn1 (single isomer, unassigned) [A(45), 6-Cyclopentyl-3-[(5,7-dimethyl[1,2,4]triazolo[1,5-a]pyrimidin-2-yl)methyl]-6-[2-(2-ethylpyridin-4-yl)ethyl]-4-hydroxy-5,6-dihydro-2H-pyran-2-one] | 14 nM
7 | CCOc1cnc(CC)cc1CCC1(C2CCCC2)CC(O)=C(Cc2nc3nc(C)cc(C)n3n2)C(=O)O1 (single isomer, unassigned) [A(51), 6-Cyclopentyl-3-[(5,7-dimethyl[1,2,4]triazolo[1,5-a]pyrimidin-2-yl)methyl]-6-[2-(5-ethoxy-2-ethylpyridin-4-yl)ethyl]-4-hydroxy-5,6-dihydro-2H-pyran-2-one] | 3 nM
8 | CCOc1cnc(CC)cc1CCC1(C2CCCC2)CC(O)=C(Cc2nc3nc(C)cc(C)n3n2)C(=O)O1 (single isomer, unassigned) [A(52), 6-cyclopentyl-3-[(5,7-dimethyl[1,2,4]triazolo[1,5-a]pyrimidin-2-yl)methyl]-6-[2-(5-ethoxy-2-ethylpyridin-4-yl)ethyl]-4-hydroxy-5,6-dihydro-2H-pyran-2-one] | 3 nM
9 | CCCOc1cnc(CC)cc1CCC1(C2CCCC2)CC(O)=C(Cc2nc3nc(C)cc(C)n3n2)C(=O)O1 (single isomer, unassigned) [A(53), 6-Cyclopentyl-3-[(5,7-dimethyl[1,2,4]triazolo[1,5-a]pyrimidin-2-yl)methyl]-6-[2-(2-ethyl-5-propoxypyridin-4-yl)ethyl]-4-hydroxy-5,6-dihydro-2H-pyran-2-one] | 3 nM
10 | CCCOc1cnc(CC)cc1CCC1(C2CCCC2)CC(O)=C(Cc2nc3nc(C)cc(C)n3n2)C(=O)O1 (single isomer, unassigned) [A(54), 6-Cyclopentyl-3-[(5,7-dimethyl[1,2,4]triazolo[1,5-a]pyrimidin-2-yl)methyl]-6-[2-(2-ethyl-5-propoxypyridin-4-yl)ethyl]-4-hydroxy-5,6-dihydro-2H-pyran-2-one] | 3 nM
11 | CCOc1cnc(CC)cc1CCC1(C2CCCC2)CC(O)=C(Cc2nc3ncc(C)cn3n2)C(=O)O1 (single isomer, unassigned) [A(55), 6-Cyclopentyl-6-[2-(5-ethoxy-2-ethylpyridin-4-yl)ethyl]-4-hydroxy-3-[(6-methyl[1,2,4]triazolo[1,5-a]pyrimidin-2-yl)methyl]-5,6-dihydro-2H-pyran-2-one] | 2 nM
12 | CCOc1cnc(CC)cc1CCC1(C2CCCC2)CC(O)=C(Cc2nc3ncc(C)cn3n2)C(=O)O1 (single isomer, unassigned) [A(56), 6-Cyclopentyl-6-[2-(5-ethoxy-2-ethylpyridin-4-yl)ethyl]-4-hydroxy-3-[(6-methyl[1,2,4]triazolo[1,5-a]pyrimidin-2-yl)methyl]-5,6-dihydro-2H-pyran-2-one] | 4 nM
13 | CCOc1cc(O)c(CC)cc1CCC1(C2CCCC2)CC(O)=C(Cc2nc3ncc(C)cn3n2)C(=O)O1 (single isomer, unassigned) [A(57), 6-Cyclopentyl-6-[2-(2-ethoxy-5-ethyl-4-hydroxyphenyl)ethyl]-4-hydroxy-3-[(6-methyl[1,2,4]triazolo[1,5-a]pyrimidin-2-yl)methyl]-5,6-dihydro-2H-pyran-2-one] | 3 nM
14 | CCOc1cc(O)c(CC)cc1CCC1(C2CCCC2)CC(O)=C(Cc2nc3ncc(C)cn3n2)C(=O)O1 (single isomer, unassigned) [A(58), 6-Cyclopentyl-6-[2-(2-ethoxy-5-ethyl-4-hydroxyphenyl)ethyl]-4-hydroxy-3-[(6-methyl[1,2,4]triazolo[1,5-a]pyrimidin-2-yl)methyl]-5,6-dihydro-2H-pyran-2-one] | 1 nM
15 | Cc1cc(C)n2nc(CC3=C(O)CC(CCc4ccc(O)c(CC(F)(F)F)c4)(C4CCCC4)OC3=O)nc2n1 (single isomer, unassigned) [A(74), 6-Cyclopentyl-3-[(5,7-dimethyl[1,2,4]triazolo[1,5-a]pyrimidin-2-yl)methyl]-4-hydroxy-6-{2-[4-hydroxy-3-(2,2,2-trifluoroethyl)phenyl]ethyl}-5,6-dihydro-2H-pyran-2-one] | 3 nM

Continued, values first:

Row | IC50 | Compound
16 | 10 nM | CCc1cc(CCC2(C3CCCC3)CC(O)=C(Cc3nc4nc(C)cc(C)n4n3)C(=O)O2)ccc1CN(C)C (racemic) [A(119), 6-cyclopentyl-6-(2-{4-[(dimethylamino)methyl]-3-ethylphenyl}ethyl)-3-[(5,7-dimethyl[1,2,4]triazolo[1,5-a]pyrimidin-2-yl)methyl]-4-hydroxy-5,6-dihydro-2H-pyran-2-one]
17 | 39 nM | CCc1cc(CCC2(C3CCCC3)CC(O)=C(Cc3nc4nc(C)cc(C)n4n3)C(=O)O2)ccc1CN1CCOCC1 (racemic) [A(123), 6-cyclopentyl-3-[(5,7-dimethyl[1,2,4]triazolo[1,5-a]pyrimidin-2-yl)methyl]-6-{2-[3-ethyl-4-(morpholin-4-ylmethyl)phenyl]ethyl}-4-hydroxy-5,6-dihydro-2H-pyran-2-one]
18 | 28 nM | CCc1cc(CCC2(C3CCCC3)CC(O)=C(Cc3nc4nc(C)cc(C)n4n3)C(=O)O2)ccc1CO (racemic) [B(33), 6-Cyclopentyl-3-[(5,7-dimethyl[1,2,4]triazolo[1,5-a]pyrimidin-2-yl)methyl]-6-{2-[3-ethyl-4-(hydroxymethyl)phenyl]ethyl}-4-hydroxy-5,6-dihydro-2H-pyran-2-one]
19 | 5 nM | Cc1cc(C)n2nc(CC3=C(O)CC(CCc4ccc(C(C)(C)C#N)c(C(F)(F)F)c4)(C4CCCC4)OC3=O)nc2n1 (racemic) [Example B(28), 2-[4-(2-{2-cyclopentyl-5-[(5,7-dimethyl[1,2,4]triazolo[1,5-a]pyrimidin-2-yl)methyl]-4-hydroxy-6-oxo-3,6-dihydro-2H-pyran-2-yl}ethyl)-2-(trifluoromethyl)phenyl]-2-methylpropanenitrile]
20 | 12 nM | Cc1cc(C)n2nc(CC3=C(O)CC(CCc4cnc(C(C)(C)C#N)c(Cl)c4)(C4CCCC4)OC3=O)nc2n1 (racemic) [Example B(39), 2-[3-chloro-5-(2-{2-cyclopentyl-5-[(5,7-dimethyl[1,2,4]triazolo[1,5-a]pyrimidin-2-yl)methyl]-4-hydroxy-6-oxo-3,6-dihydro-2H-pyran-2-yl}ethyl)pyridin-2-yl]-2-methylpropanenitrile]
21 | 5 nM | Cc1cc(C)n2nc(CC3=C(O)CC(CCc4ccc(O)c(CC(F)(F)F)c4)(C4CCCC4)OC3=O)nc2n1 (single isomer, unassigned) [A(75), 6-cyclopentyl-3-[(5,7-dimethyl[1,2,4]triazolo[1,5-a]pyrimidin-2-yl)methyl]-4-hydroxy-6-{2-[4-hydroxy-3-(2,2,2-trifluoroethyl)phenyl]ethyl}-5,6-dihydro-2H-pyran-2-one]
22 | 11 nM | CCC(C#N)(CC)c1ccc(CCC2(C3CCCC3)CC(O)=C(Cc3nc4nc(C)cc(C)n4n3)C(=O)O2)cc1C(F)(F)F (single isomer, unassigned) [A(154), 2-[4-(2-{2-Cyclopentyl-5-[(5,7-dimethyl[1,2,4]triazolo[1,5-a]pyrimidin-2-yl)methyl]-4-hydroxy-6-oxo-3,6-dihydro-2H-pyran-2-yl}ethyl)-2-(trifluoromethyl)phenyl]-2-ethylbutanenitrile]
